Reference: PubChem BioAssay AID248 (DTP/NCI, 2004)
“And” between values parts separate entries of the source, which are not always exact repeats. Equal entries are not always repeated. Toxic doses and inconclusive results are not listed. Rule as the data show it: active = T/C of 150% or more; inactive = T/C below 125%.

Tested on: L1210 leukemia ip in BDF1 mice, survival T/C
Assay: NCI In Vivo Anticancer Drug Screen. Data for tumor model L1210 Leukemia (intraperitoneal) in B6D2F1 (BDF1) mice
Details: endpoint: mean survival time, higher = longer survival
Method in brief: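 Tumor was transplanted into mice, which were then dosed with test compound or vehicle alone. Survival was recorded for each group, and the treated figure was expressed relative to the control figure.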

[1] = dose: 50.0 mg/kg/injection, schedule: Q01DX001 (ip), vehicle: saline
[2] = dose: 100.0 mg/kg/injection, schedule: Q01DX001 (ip), vehicle: saline
[3] = dose: 200.0 mg/kg/injection, schedule: Q01DX001 (ip), vehicle: saline
[4] = dose: 400.0 mg/kg/injection, schedule: Q01DX001 (ip), vehicle: saline
[5] = dose: 100.0 mg/kg/injection, schedule: Q01DX009 (ip), vehicle: Klucel (hydroxypropylcellulose) (HPC)
[6] = dose: 200.0 mg/kg/injection, schedule: Q01DX009 (ip), vehicle: Klucel (hydroxypropylcellulose) (HPC)
[7] = dose: 100.0 mg/kg/injection, schedule: Q01DX009 (ip), vehicle: saline with Tween-80
[8] = dose: 200.0 mg/kg/injection, schedule: Q01DX009 (ip), vehicle: saline with Tween-80
[9] = dose: 400.0 mg/kg/injection, schedule: Q01DX009 (ip), vehicle: saline with Tween-80
[10] = dose: 100.0 mg/kg/injection, schedule: Q01DX001 (ip), vehicle: carboxymethylcellulose (CMC)
[11] = dose: 100.0 mg/kg/injection, schedule: Q01DX001 (ip), vehicle: Klucel (hydroxypropylcellulose) (HPC)
[12] = dose: 200.0 mg/kg/injection, schedule: Q01DX001 (ip), vehicle: Klucel (hydroxypropylcellulose) (HPC)
[13] = dose: 400.0 mg/kg/injection, schedule: Q01DX001 (ip), vehicle: Klucel (hydroxypropylcellulose) (HPC)
[14] = dose: 100.0 mg/kg/injection, schedule: Q04DX003 (ip), vehicle: saline with Tween-80
[15] = dose: 200.0 mg/kg/injection, schedule: Q04DX003 (ip), vehicle: saline with Tween-80
[16] = dose: 400.0 mg/kg/injection, schedule: Q04DX003 (ip), vehicle: saline with Tween-80
[17] = dose: 100.0 mg/kg/injection, schedule: Q04DX002 (ip), vehicle: saline with Tween-80
[18] = dose: 200.0 mg/kg/injection, schedule: Q04DX002 (ip), vehicle: saline with Tween-80
[19] = dose: 400.0 mg/kg/injection, schedule: Q04DX002 (ip), vehicle: saline with Tween-80
[20] = dose: 200.0 mg/kg/injection, schedule: Q01DX001 (ip), vehicle: carboxymethylcellulose (CMC)
[21] = dose: 400.0 mg/kg/injection, schedule: Q01DX001 (ip), vehicle: carboxymethylcellulose (CMC)

Measured: T/C

CC(c1ccccc1)C(C)(C#N)c1ccccc1 (stereo not given)
inactive: [1] 97 % of control | [2] 100 % of control | [3] 100 % of control | [4] 103 % of control

COc1ccc(NC(=O)c2c(Br)c(Br)c(Br)c(Br)c2C(=O)O)c(Cl)c1
inactive: [5] 96 % of control | [6] 93 % of control

N#C/C(=C/C=C/c1ccccc1)c1cccc([N+](=O)[O-])c1
inactive: [7] 108 % of control | [8] 91 % of control | [9] 100 % of control

CCOc1cc(C=Nc2cc(Br)c(O)c(Br)c2)ccc1N(CCCl)CCCl
inactive: dose: 13.3 mg/kg/injection, schedule: Q01DX009 (ip), vehicle: carboxymethylcellulose (CMC) 108 % of control | dose: 20.0 mg/kg/injection, schedule: Q01DX009 (ip), vehicle: carboxymethylcellulose (CMC) 100 % of control | dose: 30.0 mg/kg/injection, schedule: Q01DX009 (ip), vehicle: carboxymethylcellulose (CMC) 97 % of control | dose: 44.0 mg/kg/injection, schedule: Q01DX001 (ip), vehicle: carboxymethylcellulose (CMC) 123 % of control | [10] 123 % of control | dose: 150.0 mg/kg/injection, schedule: Q01DX001 (ip), vehicle: carboxymethylcellulose (CMC) 122 % of control

CCN(CC)CCCC(C)Nc1ccc(NC(C)CCCN(CC)CC)c2c1C(=O)c1ccccc1C2=O (stereo not given)
inactive: dose: 25.0 mg/kg/injection, schedule: Q01DX009 (ip), vehicle: saline 96 % of control | dose: 25.0 mg/kg/injection, schedule: Q04DX002 (ip), vehicle: saline 92 % of control | dose: 50.0 mg/kg/injection, schedule: Q01DX009 (ip), vehicle: saline 89 % of control | dose: 50.0 mg/kg/injection, schedule: Q04DX002 (ip), vehicle: saline 103 % of control | dose: 100.0 mg/kg/injection, schedule: Q04DX002 (ip), vehicle: saline 96 % of control and 98 % of control

CN1C(C)(C)CC(O)(C(O)(c2ccccc2)c2ccccc2)CC1(C)C
inactive: dose: 100.0 mg/kg/injection, schedule: Q04DX003 (ip), vehicle: acetone 98 % of control

O=S(=O)(/N=C1\C=CC(Br)=C\C1=N/S(=O)(=O)c1ccccc1)c1ccccc1
inactive: [11] 89 % of control | [12] 106 % of control | [13] 101 % of control

c1ccc2ncc(-c3ccc4ccccc4n3)cc2c1
inactive: [11] 100 % of control | [2] 107 % of control | [5] 97 % of control and 116 % of control | [12] 94 % of control | [3] 96 % of control | [6] 95 % of control and 101 % of control | [13] 100 % of control | [4] 96 % of control | dose: 400.0 mg/kg/injection, schedule: Q01DX009 (ip), vehicle: Klucel (hydroxypropylcellulose) (HPC) 94 % of control and 100 % of control

Nc1ccc(N=Nc2ccccc2)c(N)n1
inactive: dose: 100.0 mg/kg/injection, schedule: Q04DX003 (ip), vehicle: Klucel (hydroxypropylcellulose) (HPC) 89 % of control | dose: 100.0 mg/kg/injection, schedule: Q04DX003 (ip), vehicle: saline 97 % of control | dose: 200.0 mg/kg/injection, schedule: Q04DX003 (ip), vehicle: Klucel (hydroxypropylcellulose) (HPC) 90 % of control

Cc1ccc(C)c(SC2CCCCC2=O)c1 (stereo not given)
inactive: [2] 94 % of control | [3] 101 % of control | [4] 97 % of control

O=C(OCCN(CCOC(=O)c1ccc([N+](=O)[O-])cc1)c1c[nH]c(=O)[nH]c1=O)c1ccc([N+](=O)[O-])cc1
inactive: [1] 93 % of control | [2] 93 % of control | [3] 93 % of control | [4] 110 % of control

CC1(C)C2CC3C=CCCC3(C2)C1Br (stereo not given)
inactive: [11] 103 % of control | [12] 92 % of control | [13] 100 % of control

CSc1nc(N)cc(OCc2ccccc2)n1
inactive: dose: 50.0 mg/kg/injection, schedule: Q01DX001 (ip), vehicle: saline with Tween-80 100 % of control | dose: 100.0 mg/kg/injection, schedule: Q01DX001 (ip), vehicle: saline with Tween-80 97 % of control | dose: 200.0 mg/kg/injection, schedule: Q01DX001 (ip), vehicle: saline with Tween-80 92 % of control

c1ccc(-n2ncn[n+]2-c2ccccc2)cc1
inactive: dose: 10.0 mg/kg/injection, schedule: Q01DX001 (ip), vehicle: saline 98 % of control | dose: 20.0 mg/kg/injection, schedule: Q01DX001 (ip), vehicle: saline 90 % of control | dose: 40.0 mg/kg/injection, schedule: Q01DX001 (ip), vehicle: saline 95 % of control | dose: 80.0 mg/kg/injection, schedule: Q01DX001 (ip), vehicle: saline 109 % of control

CCOC(=O)C(=CNc1ccccc1OC)C(=O)OCC
inactive: dose: 50.0 mg/kg/injection, schedule: Q01DX009 (ip), vehicle: saline with Tween-80 95 % of control | [7] 102 % of control | [14] 98 % of control | [8] 106 % of control | [15] 110 % of control | [9] 98 % of control | [16] 102 % of control

CCCCCCCCCCCC(=O)Nc1ccc2ccccc2c1
inactive: [7] 93 % of control and 97 % of control | [17] 105 % of control and 107 % of control | [14] 105 % of control | [8] 107 % of control and 88 % of control | [18] 93 % of control and 89 % of control | [15] 94 % of control | [9] 96 % of control and 90 % of control | [19] 94 % of control and 117 % of control | [16] 95 % of control

COC(=O)C1=CO[C@H](C)[C@@H]2CN3CCc4c([nH]c5ccccc45)[C@@H]3C[C@H]12
inactive: dose: 17.5 mg/kg/injection, schedule: Q01DX Z (ip), vehicle: carboxymethylcellulose (CMC) 98 % of control

NC(CO)C(=O)O (stereo not given)
inactive: [10] 95 % of control | [2] 91 % of control and 104 % of control | [20] 101 % of control | [3] 92 % of control and 101 % of control | [21] 103 % of control | [4] 105 % of control and 95 % of control

NC(Cc1nccn1Cc1ccccc1)C(=O)O (stereo not given)
inactive: dose: 75.0 mg/kg/injection, schedule: Q04DX002 (ip), vehicle: saline with Tween-80 104 % of control | dose: 150.0 mg/kg/injection, schedule: Q04DX002 (ip), vehicle: saline with Tween-80 112 % of control | dose: 300.0 mg/kg/injection, schedule: Q04DX002 (ip), vehicle: saline with Tween-80 119 % of control

CN(N=O)c1ccc(/C=C2\C=Cc3ccccc32)cc1
inactive: dose: 50.0 mg/kg/injection, schedule: Q01DX001 (ip), vehicle: carboxymethylcellulose (CMC) 96 % of control | [10] 93 % of control | [20] 96 % of control | [21] 98 % of control

CC(=O)NCCCCCCCCCCNC(C)=O
inactive: dose: 10.0 mg/kg/injection, schedule: Q01DX Z (ip), vehicle: saline 91 % of control | dose: 30.0 mg/kg/injection, schedule: Q01DX Z (ip), vehicle: saline 95 % of control | dose: 100.0 mg/kg/injection, schedule: Q01DX Z (ip), vehicle: saline 95 % of control | dose: 300.0 mg/kg/injection, schedule: Q01DX Z (ip), vehicle: saline 98 % of control

CC(C(O)c1ccncc1)[N+](=O)[O-] (stereo not given)
inactive: [17] 92 % of control | [18] 107 % of control | [19] 92 % of control
